Residues, ends and D or L forms follow the SMILES beside them.
Legend:
[1] = target: T1, RANBP2 RanBD4 (Homo sapiens, UniProt P49792); test: FP displacement assay, RANBP2 RanBD4; assay type: binding; conditions: probe FITC-C7orf25 5 nM, 50 mM sodium phosphate pH 7.4, room temperature, at least three technical replicates, read-out: KD values ± SEM
T1 construct: GST (cleaved yes); made in house; host or cells: Escherichia coli BL21-Gold(DE3)
T1 sequence (P49792 2924-3050): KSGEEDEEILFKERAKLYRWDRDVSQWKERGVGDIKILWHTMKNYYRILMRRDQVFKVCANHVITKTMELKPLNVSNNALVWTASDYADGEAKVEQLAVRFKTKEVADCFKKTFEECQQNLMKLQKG
Method: (§1) FP experiments were performed as described previously (Kliche et al, [2021]). Shortly, in order to monitor the binding event, FITC‐labelled peptides were used (excitation 495 nm, emission: 535 nm) and the FP signal was recorded in mP on a SpectraMax iD5 Multi‐Mode Microplate Reader (Molecular Devices) by measuring the emitted light in two angels. The measurements were performed at room temperature and prepared in nonbinding black half area 96‐well microplates (Corning®; 50 μl/well). For measuring direct binding, that is saturation curves, a 1:1 dilution series of protein domain (25 μl/well) was generated in 50 mM sodium phosphate buffer pH 7.4 and the measurement performed with 5 nM FITC‐labelled peptide (25 μl/well). The buffer‐corrected values were subsequently plotted with PRISM and fitted to the quadratic equation (Gianni et al, [2005]).
(§2) The 1:1 dilution series in this experiment was performed with the unlabelled peptide in 50 mM sodium phosphate buffer pH 7.4, so that each well‐contained unlabelled peptide (25 μl) at a certain concentration and pre‐formed complex (25 μl). The KD values of this indirectly monitored binding event were calculated as described previously (Nikolovska‐Coleska et al, [2004]). All measurements were at least in technical triplicates as well as biological duplicates when indicated. An amplitude shift between repeat measurements in the displacement experiments was occasionally observed due to variations in the protein preparations. If that was the case, the “active” protein concentration was back‐calculated according to the quadratic equation from the saturation curves performed in parallel. By comparing the active protein concentrations in the complex between different protein preparations, the amplitude was normalised.

[2] = target: T1, RANBP2 RanBD4; test: Phosphomimetic ProP-PD selection, RANBP2 RanBD4; conditions: phosphomimetic enrichment score of the wild-type/phosphomimetic (E) pair at the phosphosite, PM_HD2 phage selection; positive = phosphomimetic enhances binding; P-value in brackets not taken
Method: (§3) Selections using the PM_HD2 phage library were performed as described previously with minor modification to the original protocol. The corresponding tag protein (either GST or MBP) was first used during negative selections. Selections were run for 4 days. • Bait and tag proteins (10–15 μg in 100 μl PBS) were immobilised in 96‐well MaxiSorb plate (NUNC) o.n. at 4°C. • Escherichia coli OmniMax bacteria were grown in 2YT medium supplemented with tetracycline (100 μg/ml) at 37°C and 200 rpm. • Plates with immobilised bait/tag proteins were blocked with 0.5% BSA in PBS for 1 h at 4°C. • Phage library (10 μl/well) was prepared by diluting 10× with PBS and adding one‐fourth of the volume of PEG/NaCl. For phage precipitation, prepared library was incubated for 10 min on ice followed by centrifugation for 10 min at 10,000 × g at 4°C. […]
(§4) Based on the results from phage pool ELISAs, samples from selection Day 3 and 4 were selected for NGS, as described previously (Benz et al, [2022]). • Peptide coding regions were amplified and dual‐barcoded by PCR. […] From the columns, samples were eluted with 30 μl TE (10 mM Tris–HCl, 1 mM EDTA. pH 7.5) buffer and quantified with Quant‐iT PicoGreen dsDNA Assay Kit. • Samples were sequenced on MiSeq (MSC 2.5.0.5/RTA 1.18.54) with a 151 nt (Read1) setup using “Version3” chemistry. […]

[3] = target: T2, PDCD6IP Alix V domain (Homo sapiens, UniProt Q8WUM4); test: FP displacement assay, PDCD6IP Alix V domain; assay type: binding; conditions: probe FITC-HIV1_Gag 5 nM, 50 mM sodium phosphate pH 7.4, room temperature, at least three technical replicates, read-out: KD values ± SEM
T2 construct: GST (cleaved yes); made in house; host or cells: Escherichia coli BL21-Gold(DE3)
T2 sequence (Q8WUM4 360-702): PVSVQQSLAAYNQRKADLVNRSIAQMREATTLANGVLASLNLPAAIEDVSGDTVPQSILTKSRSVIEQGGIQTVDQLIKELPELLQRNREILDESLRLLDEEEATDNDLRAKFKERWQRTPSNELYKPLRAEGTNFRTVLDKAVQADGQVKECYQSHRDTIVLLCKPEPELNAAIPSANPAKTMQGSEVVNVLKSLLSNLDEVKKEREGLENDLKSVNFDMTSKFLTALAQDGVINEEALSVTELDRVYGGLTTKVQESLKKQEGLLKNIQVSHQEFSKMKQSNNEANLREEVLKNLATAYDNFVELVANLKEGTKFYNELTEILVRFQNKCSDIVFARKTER
Method: as §1, §2

[4] = target: T2, PDCD6IP Alix V domain; test: Phosphomimetic ProP-PD selection, PDCD6IP Alix V domain; conditions: phosphomimetic enrichment score of the wild-type/phosphomimetic (E) pair at the phosphosite, PM_HD2 phage selection; positive = phosphomimetic enhances binding; P-value in brackets not taken
Method: as §3, §4

[5] = target: T3, SNX27 PDZ (Homo sapiens, UniProt Q96L92); test: FP displacement assay, SNX27 PDZ (MBP-tagged); assay type: binding; conditions: for Kd: MBP-tagged domain, probe FITC-SYT16 5 nM, 50 mM sodium phosphate pH 7.4, room temperature, at least three technical replicates, read-out: KD values ± SEM
T3 construct: SNX27_PDZ__Q96L92_40_141; made in house; host or cells: Escherichia coli BL21-Gold(DE3)
Method: For FP, ITC and crystallisation, the tag was removed with the appropriate protease either on beads (0.1 mg/ml thrombin (Cytiva) in PBS, 1 mM dithiothreitol (DTT)) or by dialysis in cleavage buffer (Human Rhinovirus (HRV) 3C protease: 50 mM Tris–HCl pH 7.4, 150 mM NaCl, 1 mM β‐mercaptoethanol), both procedures were overnight. In case of HRV protease cleavage, the tag was separated from the target protein domain by reverse ion metal affinity chromatography using Ni^2+ beads for purification, whereas thrombin was removed using a benzamidine column (Cytiva). Affinity measurements for SNX27 PDZ were performed on the MBP‐tagged construct, as well as PIN1 WW domain on the GST‐tagged construct. For FP and ITC, proteins were dialysed in 50 mM sodium phosphate buffer pH 7.4, 1 mM DTT. For crystallisation of the NTD of clathrin, the protein was further purified by a S200 Sepharose column (Cytiva) using 20 mM Tris–HCl pH 7.4, 150 mM NaCl and 1 mM DTT.
as §1, §2

[6] = target: T3, SNX27 PDZ; test: Phosphomimetic ProP-PD selection, SNX27 PDZ; conditions: phosphomimetic enrichment score of the wild-type/phosphomimetic (E) pair at the phosphosite, PM_HD2 phage selection; positive = phosphomimetic enhances binding; P-value in brackets not taken
Method: as §3, §4

SMILES | Kd [1] [µM] | PES [2] | Kd [3] [µM] | PES [4] | Kd [5] [µM] | PES [6] | further results
CC(=O)N[C@@H](Cc1c[nH]cn1)C(=O)N[C@@H](CC(C)C)C(=O)N1CCC[C@H]1C(=O)N[C@@H](CC(C)C)C(=O)N[C@@H](CC(N)=O)C(=O)N[C@@H](CCC(=O)O)C(=O)N1CCC[C@H]1C(=O)N[C@@H](CC(C)C)C(=O)N1CCC[C@H]1C(=O)NCC(=O)N[C@@H](CO)C(=O)N[C@@H](CCC(=O)O)C(=O)N[C@@H](CC(C)C)C(=O)N[C@H](C(=O)N[C@@H](CCCCN)C(=O)N[C@@H](Cc1ccc(O)cc1)C(N)=O)[C@@H](C)O [INTS6_145–159 E] (Ac-HLPLNEPLPGSELTKY-NH2) | 1080 | −4 (0.0044) |  |  |  |  | 
CC(=O)N[C@@H](CCCCN)C(=O)N[C@@H](Cc1ccc(O)cc1)C(=O)N[C@@H](CO)C(=O)N[C@@H](CC(=O)O)C(=O)N[C@@H](CC(=O)O)C(=O)N[C@H](C(=O)N1CCC[C@H]1C(=O)N[C@@H](CC(C)C)C(=O)N1CCC[C@H]1C(=O)N[C@@H](CCC(=O)O)C(=O)N1CCC[C@H]1C(=O)N[C@@H](CO)C(=O)N[C@@H](Cc1ccc(O)cc1)C(=O)N[C@@H](CCCCN)C(=O)N[C@@H](Cc1ccc(O)cc1)C(=O)N[C@@H](CC(N)=O)C(N)=O)[C@@H](C)O [DHX38_260–275 E] (Ac-KYSDDTPLPEPSYKYN-NH2) | 470 ± 35 | 3 (0.04) |  |  |  |  | 
CC[C@H](C)[C@H](NC(=O)[C@H](CCCCN)NC(=O)[C@H](CC(C)C)NC(=O)[C@@H]1CCCN1C(=O)[C@H](CCC(=O)O)NC(=O)[C@@H](NC(=O)[C@H](CCC(N)=O)NC(=O)[C@@H]1CCCN1C(=O)[C@H](Cc1ccc(O)cc1)NC(=O)[C@H](CC(C)C)NC(=O)[C@@H]1CCCN1C(=O)[C@H](CCCNC(=N)N)NC(=O)[C@H](CC(C)C)NC(=O)[C@@H]1CCCN1C(=O)[C@H](CO)NC(=O)[C@H](C)NC(C)=O)[C@@H](C)CC)C(N)=O [FOXK1_212–227 E] (Ac-ASPLRPLYPQIEPLKI-NH2) |  |  | 13 ± 1 | 2.9 (0.04) |  |  | 
CC(=O)N[C@@H](CC(N)=O)C(=O)N[C@@H](CC(C)C)C(=O)N[C@@H](CC(C)C)C(=O)N[C@@H](CC(C)C)C(=O)N[C@@H](CCC(=O)O)C(=O)N[C@@H](CCCNC(=N)N)C(=O)N[C@@H](CC(=O)O)C(=O)N[C@H](C(=O)N[C@@H](CCC(=O)O)C(=O)N[C@@H](Cc1ccccc1)C(=O)N[C@H](C(=O)N[C@H](C(=O)N[C@@H](C)C(=O)N1CCC[C@H]1C(=O)N[C@@H](CC(=O)O)C(=O)N[C@@H](Cc1ccc(O)cc1)C(N)=O)C(C)C)[C@@H](C)O)[C@@H](C)O [CDC25C30–44 E] (Ac-NLLLERDTEFTVAPDY-NH2) |  |  |  |  | 680 ± 40 | −6 (0.00063) | 
CSCC[C@H](NC(=O)CNC(C)=O)C(=O)N[C@H](C(=O)N[C@@H](CO)C(=O)N[C@@H](CCC(=O)O)C(=O)N[C@H](C(=O)N[C@@H](CO)C(=O)N[C@@H](Cc1ccccc1)C(=O)N[C@@H](CC(N)=O)C(=O)NCC(=O)NCC(=O)N[C@@H](Cc1ccc(O)cc1)C(N)=O)[C@@H](C)O)C(C)C [DAXX606–616 E] (Ac-GMVSETSFNGGY-NH2) |  |  |  |  | 23 ± 4 | 6 (0.00063) | IC50 ([5]; Fig 4B, SNX27 PDZ, technical triplicates, read-out: IC50 values of displacement curves, with SEM): 117 ± 25 µM
CC(=O)N[C@H](C(=O)N[C@@H](CCC(=O)O)C(=O)N1CCC[C@H]1C(=O)N[C@@H](CC(C)C)C(=O)N[C@H](C(=O)N[C@@H](CO)C(=O)N[C@@H](CC(C)C)C(=O)N[C@@H](Cc1ccc(O)cc1)C(=O)N1CCC[C@H]1C(=O)N[C@@H](C)C(=O)N[C@@H](CC(C)C)C(=O)N[C@@H](CCC(=O)O)C(=O)N[C@@H](C)C(=O)N[C@@H](CCCNC(=N)N)C(=O)N[C@@H](C)C(=O)N[C@@H](CC(C)C)C(N)=O)C(C)C)[C@@H](C)O [OTUD5_507–522 E] (Ac-TEPLVSLYPALEARAL-NH2) |  |  | 88 ± 7 | 0.66 (0.34) |  |  | 

— publication PMC10333884, “Large‐scale phosphomimetic screening identifies phospho‐modulated motif‐based protein interactions” (Molecular Systems Biology, 2023)
